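Results reflect a 48-hour exposure of cells in 96-well plates to compound at five concentrations. Abbreviation: GI50, concentration required for 50% inhibition of growth.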 Activity calls are given as the source filed them. Rule as the data show it: active = GI50 up to about 1.1 µM and inactive = higher.
Key:
Test in all cases: growth of human tumour cells (NCI), 48 h
[1] = tested on: SF-295
[2] = tested on: SK-OV-3
[3] = tested on: UACC-257
[4] = tested on: A549
[5] = tested on: HL-60
[6] = tested on: OVCAR-3
[7] = tested on: SNB-75
[8] = tested on: OVCAR-4
[9] = tested on: CAKI-1
[10] = tested on: A498
[11] = tested on: SR
[12] = tested on: SF-268
[13] = tested on: ACHN
[14] = tested on: HCT-116
[15] = tested on: SNB-19
[16] = tested on: IGROV-1

Measured: GI50

COc1ccc(OC)c(NC(=O)CCC/C(CC(=O)c2ccc(O)c(OC)c2)=N\Nc2ccc([N+](=O)[O-])cc2)c1
inactive: [1] 52.8 µM | [2] 39 µM | [3] > 100 µM | [4] > 100 µM | [5] > 100 µM | [6] > 100 µM | [7] 22.5 µM | [8] > 100 µM | [9] > 100 µM | [10] > 100 µM | [11] > 100 µM | [12] > 100 µM | [13] 80.4 µM | [14] > 100 µM | [15] 26.6 µM | [16] > 100 µM

CC(=O)NC(CCCCNC(=O)NCCCl)C(=O)NCc1ccccc1 (configuration not stated)
inactive: [1] > 100 µM | [3] > 100 µM | [4] > 100 µM | [5] > 100 µM | [6] > 100 µM | [7] > 100 µM | [8] > 100 µM | [9] > 100 µM | [11] > 100 µM | [12] > 100 µM | [13] > 100 µM | [14] > 100 µM | [15] > 100 µM

O=C1c2ccccc2N2OC3(N4CCOCC4)CCCC3C12c1ccccc1 (configuration not stated)
inactive: [1] > 100 µM | [2] > 100 µM | [3] > 100 µM | [4] > 100 µM | [5] 77.1 µM | [7] > 100 µM | [8] > 100 µM | [10] > 100 µM | [11] > 100 µM | [12] > 100 µM | [13] > 100 µM | [14] > 100 µM | [15] > 100 µM | [16] > 100 µM

Clc1cccc(C2SCc3nc4ccccc4n32)c1 (configuration not stated)
inactive: [1] 30.3 µM | [2] 21.6 µM | [4] 42.9 µM | [5] 7.57 µM | [6] 14.4 µM | [7] 3.52 µM | [8] 27 µM | [9] 27 µM | [11] 16.3 µM | [12] 28.8 µM | [13] 18.4 µM | [16] 22.3 µM

COC1(OC)CC2CCCCC2=C(C)N1S(=O)(=O)c1ccccc1 (configuration not stated)
inactive: [1] > 100 µM | [2] > 100 µM | [3] > 100 µM | [4] > 100 µM | [5] > 100 µM | [6] > 100 µM | [7] > 100 µM | [8] > 100 µM | [9] > 100 µM | [11] > 100 µM | [12] > 100 µM | [13] > 100 µM | [14] > 100 µM | [15] > 100 µM | [16] > 100 µM

[N-]=[N+]=Nc1nnc(CCCCc2nnc(N=[N+]=[N-])o2)o1
inactive: [1] > 100 µM | [2] > 100 µM | [3] > 100 µM | [4] > 100 µM | [6] > 100 µM | [7] > 100 µM | [8] > 100 µM | [10] > 100 µM | [12] > 100 µM | [13] > 100 µM | [14] > 100 µM | [15] > 100 µM

COC(=O)/C=C(C)/C=C/C1OC(C)OCC1O (configuration not stated)
inactive: [1] > 100 µM | [2] > 100 µM | [3] > 100 µM | [4] > 100 µM | [5] > 100 µM | [6] > 100 µM | [8] > 100 µM | [9] > 100 µM | [10] > 100 µM | [12] > 100 µM | [13] > 100 µM | [15] > 100 µM | [16] > 100 µM

COC(=O)C(=O)C(C(=O)C(=O)Nc1cc([N+](=O)[O-])ccc1[N+](=O)[O-])c1nc2ccc(C(=O)c3ccccc3)cc2nc1O (configuration not stated)
inactive: [1] 31 µM | [2] 34.2 µM | [3] 34.3 µM | [4] 43.8 µM | [6] 39.2 µM | [8] 49.9 µM | [9] 19.3 µM | [10] 20.9 µM | [11] 21.7 µM | [12] 47.6 µM | [13] 34.8 µM | [14] 40.6 µM | [15] 50.4 µM | [16] 33.6 µM

Nc1nc2c(ncn2Cc2ccccc2CCO)c(=O)[nH]1
inactive: [1] > 100 µM | [2] > 100 µM | [4] > 100 µM | [5] > 100 µM | [6] > 100 µM | [7] > 100 µM | [8] > 100 µM | [9] > 100 µM | [10] > 100 µM | [12] > 100 µM | [13] > 100 µM | [15] > 100 µM | [16] > 100 µM

Oc1nc2cc(Cl)ccc2nc1/C(=N\Nc1ccccc1)C(O)c1ccc(Cl)c(Cl)c1 (configuration not stated)
inactive: [1] > 100 µM | [2] > 100 µM | [3] > 100 µM | [4] > 100 µM | [5] > 100 µM | [6] > 100 µM | [7] > 100 µM | [8] > 100 µM | [11] > 100 µM | [12] 47.1 µM | [13] > 100 µM | [14] > 100 µM | [15] > 100 µM | [16] > 100 µM

Nc1ncnc2c1sc(=S)n2-c1ccccc1
inactive: [1] > 100 µM | [2] > 100 µM | [3] > 100 µM | [4] > 100 µM | [5] > 100 µM | [6] > 100 µM | [7] > 100 µM | [8] > 100 µM | [9] > 100 µM | [10] 82.8 µM | [11] > 100 µM | [12] > 100 µM | [13] > 100 µM | [14] > 100 µM | [15] > 100 µM | [16] > 100 µM

CCN(CC)c1ccc(/N=N/c2ccc(-c3nc4cccn(C)c-4n3)cc2)cc1
inactive: [1] 5.04 µM | [2] 17.3 µM | [3] 9.14 µM | [4] 6.62 µM | [5] 1.75 µM | [6] 10.5 µM | [7] 17 µM | [8] 11.2 µM | [9] 16.6 µM | [10] 14.9 µM | [11] 2.51 µM | [12] 13.2 µM | [14] 3.61 µM | [15] 15.6 µM | [16] 10.7 µM

Cc1ccc(SC(C)/C=C/NNC2=NN=C(c3ccccc3)C(c3ccccc3)N2)cc1 (configuration not stated)
inactive: [1] 30.3 µM | [2] 32.2 µM | [3] 31.5 µM | [4] 33.1 µM | [5] 13 µM | [6] 25.5 µM | [7] 20.7 µM | [8] 29.1 µM | [9] 13.5 µM | [10] 40.4 µM | [11] 11.5 µM | [12] 28 µM | [13] 29.6 µM | [14] 39.6 µM | [16] 31.1 µM

COC(=O)/C(=N/NC(C)(C)C)C(C(=O)C=C(C)C)C(=O)C(=O)Nc1ccc(Cl)cc1C (configuration not stated)
inactive: [1] > 100 µM | [2] > 100 µM | [3] > 100 µM | [4] > 100 µM | [5] > 100 µM | [6] > 100 µM | [8] > 100 µM | [9] > 100 µM | [10] > 100 µM | [11] > 100 µM | [12] > 100 µM | [13] > 100 µM | [14] > 100 µM | [15] > 100 µM | [16] > 100 µM

— ChEMBL document CHEMBL1201862, “PubChem BioAssay data set” (2004)
